Data: patent publication US11578085B2, “Heterocycle-substituted bicyclic azole pesticides” (FMC CORPORATION, priority 2013, dated 2023)
Like-named read-outs stand apart in the source and are kept apart here.

Tests used:
Type in all cases: in vivo
[1] = system: green peach aphid (Myzus persicae (Sulzer)); test: Test C: control of green peach aphid on radish plant (spray, contact and/or systemic); details: 144 h
Description: (§1) Test compounds were formulated using a solution containing 10% acetone, 90% water and 300 ppm X-77® Spreader Lo-Foam Formula non-ionic surfactant containing alkylarylpolyoxyethylene, free fatty acids, glycols and isopropanol (Loveland Industries, Inc. Greeley, Colo., USA). The formulated compounds were applied in 1 mL of liquid through a SUJ2 atomizer nozzle with 1/8 JJ custom body (Spraying Systems Co. Wheaton, Ill., USA) positioned 1.27 cm (0.5 inches) above the top of each test unit. Test compounds were sprayed at the rates indicated, and each test was replicated three times.
For evaluating control of green peach aphid (Myzus persicae (Sulzer)) through contact and/or systemic means, the test unit consisted of a small open container with a 12-15-day-old radish plant inside. This was pre-infested by placing on a leaf of the test plant 30-40 aphids on a piece of leaf excised from a culture plant (cut-leaf method). The aphids moved onto the test plant as the leaf piece desiccated. After pre-infestation, the soil of the test unit was covered with a layer of sand.
Test compounds were formulated and sprayed at 250 and/or 50 ppm. After spraying of the formulated test compound, each test unit was allowed to dry for 1 hour and then a black, screened cap was placed on top. The test units were held for 6 days in a growth chamber at 19-21° C. and 50-70% relative humidity. Each test unit was then visually assessed for insect mortality.

[2] = system: cotton melon aphid (Aphis gossypii (Glover)); test: Test D: control of cotton melon aphid on cotton plant (spray, contact and/or systemic); details: 144 h, assessed after 6 days; for mortality at 50 ppm: sprayed at 50 ppm; for mortality at 250 ppm: sprayed at 250 ppm
Description: as §1
For evaluating control of cotton melon aphid (Aphis gossypii (Glover)) through contact and/or systemic means, the test unit consisted of a small open container with a 6-7-day-old cotton plant inside. This was pre-infested with 30-40 insects on a piece of leaf according to the cut-leaf method, and the soil of the test unit was covered with a layer of sand.
Test compounds were formulated and sprayed at 250 and/or 50 ppm. After spraying, the test units were maintained in a growth chamber for 6 days at 19° C. and 70% relative humidity. Each test unit was then visually assessed for insect mortality.

[3] = system: sweetpotato whitefly (Bemisia tabaci (Gennadius)); test: Test F: control of sweetpotato whitefly on cotton plant (spray, contact and/or systemic); details: 312 h
Description: as §1
For evaluating control of the sweetpotato whitefly (Bemisia tabaci (Gennadius)) through contact and/or systemic means, the test unit consisted of a small open container with a 12-14-day-old cotton plant inside. Prior to the spray application, both cotyledons were removed from the plant, leaving one true leaf for the assay. Adult whiteflies were allowed to lay eggs on the plant and then were removed from the test unit. Cotton plants infested with at least 15 eggs were submitted to the test for spraying.
Test compounds were formulated and sprayed at 250 and/or 50 ppm. After spraying, the test units were allowed to dry for 1 hour. The cylinders were then removed, and the units were taken to a growth chamber and held for 13 days at 28° C. and 50-70% relative humidity. Each test unit was then visually assessed for insect mortality.

[4] = system: potato leafhopper (Empoasca fabae (Harris)); test: Test B: control of potato leafhopper on Soleil bean plant (spray, contact and/or systemic); details: 144 h, sprayed at 250 ppm, assessed after 6 days
Description: as §1
For evaluating control of potato leafhopper (Empoasca fabae (Harris)) through contact and/or systemic means, the test unit consisted of a small open container with a 5-6-day-old Soleil bean plant (primary leaves emerged) inside. White sand was added to the top of the soil, and one of the primary leaves was excised prior to application of the test compound.
Test compounds were formulated and sprayed at 250 and/or 50 ppm. After spraying of the formulated test compound, the test units were allowed to dry for 1 hour before they were post-infested with 5 potato leafhoppers (18-to-21-day-old adults). […] Each test unit was then visually assessed for insect mortality.

[5] = sprayed at 50 ppm, assessed after 6 days, read-out: mortality
[6] = sprayed at 250 ppm, assessed after 6 days, read-out: mortality
[7] = sprayed at 250 ppm, assessed after 13 days, read-out: mortality

Row | SMILES | mortality at 50 ppm [1, 5] | mortality at 250 ppm [1, 6] | mortality at 50 ppm [2] | mortality at 250 ppm [2] | mortality at 250 ppm [3] | mortality at 50 ppm [1] | mortality at 250 ppm [1] | mortality at 250 ppm [4] | mortality at 250 ppm [3, 7]
1 | CC(F)(F)CNC(=O)c1ccc2nn(-c3cccnc3)cc2c1 [Compound 54, N-(2,2-difluoropropyl)-2-(3-pyridinyl)-2H-indazole-5-carboxamide] | ≥ 80% | ≥ 80% | ≥ 80% | ≥ 80% | – | – | – | – | –
2 | O=C(NCCCl)c1ccc2nn(-c3cccnc3)cc2c1 [Compound 463] | – | – | – | – | ≥ 50% | ≥ 80% | ≥ 80% | – | –
3 | O=C(NCc1ncccn1)c1ccc2nn(-c3cccnc3)cc2c1 [Compound 55, 2-(3-pyridinyl)-N-(2-pyrimidinylmethyl)-2H-indazole-5-carboxamide] | ≥ 80% | ≥ 80% | ≥ 80% | ≥ 80% | – | – | – | – | –
4 | O=C(NCC(F)(F)F)c1cccc2nn(-c3cccnc3)cc12 [Compound 19, 2-(3-pyridinyl)-N-(2,2,2-trifluoroethyl)-2H-indazole-4-carboxamide] | ≥ 80% | ≥ 80% | ≥ 80% | ≥ 80% | – | – | – | – | –
5 | O=C(NCC(F)(F)F)c1cccc2nn(-c3ccc[n+]([O-])c3)cc12 [Compound 466] | – | – | – | – | – | – | – | ≥ 80% | –
6 | COC(=O)NNC(=O)c1ccc2nn(-c3cccnc3)cc2c1 [Compound 42, methyl 2-[[2-(3-pyridinyl)-2H-indazol-5-yl]carbonyl]hydrazinecarboxylate] | ≥ 80% | ≥ 80% | ≥ 80% | – | – | – | – | – | ≥ 50%
7 | O=C(NC1CC1)c1cccc2nn(-c3cccnc3)cc12 [Compound 14, N-cyclopropyl-2-(3-pyridinyl)-2H-indazole-4-carboxamide] | ≥ 80% | ≥ 80% | ≥ 80% | ≥ 80% | – | – | – | – | –
8 | O=C(NC1CCCCC1)c1cccc2nn(-c3cccnc3)cc12 [Compound 16, N-cyclohexyl-2-(3-pyridinyl)-2H-indazole-4-carboxamide] | ≥ 80% | ≥ 80% | ≥ 80% | ≥ 80% | – | – | – | – | –
9 | CC(C)NC(=O)c1cccc2nn(-c3cccnc3)cc12 [Compound 8, N-(1-methylethyl)-2-(3-pyridinyl)-2H-indazole-4-carboxamide] | ≥ 80% | ≥ 80% | ≥ 80% | ≥ 80% | – | – | – | – | ≥ 50%
10 | O=C(NCC1CCCO1)c1ccc2nn(-c3ccc[n+]([O-])c3)cc2c1 (stereo not shown) [Compound 462] | ≥ 80% | ≥ 80% | – | ≥ 80% | – | – | – | – | –
11 | CSCCNC(=O)c1cccc2nc(-c3cccnc3)sc12 [Compound 84, N-[2-(methylthio)ethyl]-2-(3-pyridinyl)-7-benzothiazolecarboxamide] | ≥ 80% | ≥ 80% | – | – | – | – | – | – | –
12 | O=C(NCC1CCCO1)c1ccc2nn(-c3cccnc3)cc2c1 (stereo not shown) [Compound 41, 2-(3-pyridinyl)-N-[(tetrahydro-2-furanyl)methyl]-2H-indazole-5-carboxamide] | ≥ 80% | ≥ 80% | ≥ 80% | ≥ 80% | – | – | – | – | –
13 | Cc1cnc(CNC(=O)c2ccc3nn(-c4cccnc4)cc3c2)cn1 [Compound 76, N-[(5-methyl-2-pyrazinyl)methyl]-2-(3-pyridinyl)-2H-indazole-5-carboxamide] | ≥ 80% | ≥ 80% | ≥ 80% | – | – | – | – | – | –
14 | O=C(NCC1CC1(F)F)c1ccc2nn(-c3cccnc3)cc2c1 (stereo not shown) [Compound 51, N-[(2,2-difluorocyclopropyl)methyl]-2-(3-pyridinyl)-2H-indazole-5-carboxamide] | ≥ 80% | ≥ 80% | ≥ 80% | ≥ 80% | – | – | – | – | –
